Laboratory results published in patent US7001770B1, “Calpain inhibitors and their applications” (priority 1998, dated 2006).
Square brackets hold non-standard residues; d marks the D form. Peptide text beside a SMILES is read from it. Nle = CCCC[C@H](N)C(=O)O

How the values were obtained:
HLF cells = test: Apoptosis by annexin V-FITC staining, flow cytometry; format: cell-based; conditions: for Percent Annexin V Positive Staining: 26 hours post treatment
Protocol: P53 was administered to the cells by the use of the replication defective adenoviral vector ACN53 described in Wills, et al., supra. The effect of varying concentrations of rAd-p53 (from […] to 2×10^9 rAd-p53 particles/ml of solution) was investigated in combination with CI-1 in a range of 5–20 μm. The effects of individual and combination treatment was determined in the in DLD1, RKO, HLF and SK-Hep1 cells was investigated in substantial accordance with the teaching of Examples 2 and 3 herein. The percentage of apoptotic cells was determined at 17 hours post treatment (with the exception of U87 cells (24 hours) and HeLa cells (68 hours)) with annexin V positive staining. The results are presented in graphical format in FIG. 3 of the attached drawings. In brief, the results were as follows:
To quantitate the increased efficacy of rAd-p53 induced cell killing in tumor cell lines in response to CI-1 treatment, HLF cells were infected with increasing concentrations of rAd-p53 with or without 10 μM CI-1, and assayed for percentage apoptotic cells by annexin V-FITC staining 42 hours post-treatment in substantial accordance with the teaching of Example 3 herein. […] No increase in annexin V-FITC positive cells was detected at 1×10^5 particles/ml rAd-p53 with or without 10 μM CI-1. At 1×10^6 particles/ml rAd-p53, the percentage apoptotic cells without CI-1 was 14%, while 40% of annexin V positive cells was detected when cell were treated with 10 μM CI-1. At a concentration of 1×10^7 ACN53 particles/ml, 17% annexin V positive without and 63% with 10 μM CI-1 was detected. At 1×10^8 particles/ml, 52% were annexin V positive without and 70% positive with inhibitor treatment. At a dose of 1×10^9 particles of rAd-p53, however, the percentage annexin V positive was about the same for both 77% without and 74% with 10 μM CI-1. […] concentration of rAd-p53 was sufficient to induce approximately 50% cell death, while only a 1×10^7 particle/ml concentration rAd-p53 was needed to induce approximately the same percentage of cell death when 10 μM CI-1 as added.
The effect of an inhibitor of μ-calpains, CI-1 (N-acetyl-leu-leu-norleucinal), was investigated for its ability to enhance p53 mediated apoptosis in tumor cell lines having p53+ and p53− status listed in Table1. Each cell line was treated with 5–50 μM CI-1 for 17–26 hours. To detect a G0/G1 block, bromodeoxyuridine (BrdU) incorporation followed by flow cytometric analysis was done 17 hours post-treatment as described in Example 4 herein. […] The results of these experiments are presented in FIGS. 1 and 2 of the attached drawings. In FIG. 1, each point on the graph represents percentage annexin V positive after background percentage (DMF alone) was subtracted.
An aliquot containing approximately 1×10^6 cells of each type was placed in a T-225 flask. The effect of varying concentrations of rAd-p53 (from 1×10^7 to 2×10^9ACN53 particles/ml of solution) was investigated in combination with CI-1 in a range of 5–20 μM. In each instance, the cell line was infected with 1×10^7–1×10^9 particles/ml of cell culture with the ACN53 using the empty cassette virus (ZZCB) as a control. In each instance, the cells were exposed to the virus for a period of one hour. At the end of this time, the virus was washed off the from the cells and fresh media containing an appropriate concentration of CI-1 was added.
HLF cells were infected at increasing log concentrations of rAd-p53 ranging from 1×10^5 to 1×10^9 for one hour at which time virus was washed off and replaced with fresh media (viral infection with no treatment) or with 10 μM calpain inhibitor 1. Cells were assayed for apoptosis by annexin V-FITC staining at 24 and 42 hours post-infection.
CI-1 was obtained from Boehringer-Mannheim Biochemicals (Indianapolis, Ind.). The CI-1 containing media was prepared as follows. CI-1 was diluted in dimethylformamide (DMF) to a concentration of 33.3 μM/μl. […]

[1] = tested on: JC (mouse mammary carcinoma, p53 mutant) cells; test: Rodent cancer model, flank tumors; format: in vivo, mice; conditions: calpain inhibitor alone, 60 mg/kg intraperitoneal
Protocol: The in vitro results presented above were confirmed in a rodent cancer model. Briefly, healthy immune competent mice were injected with JC (mouse mammary carcinoma, p53 mutant) cells and tumors were permitted to form. This is a particularly rigorous model as JC cells are particularly difficult to infect and the mouse is an immunocompetent mouse capable of producing an immune response to the human adenovirus and/or the human p53 transgene. After 2 weeks, flank tumors were present in all animals. Calpain inhibitor was administered via intraperitoneal injection to a concentration of approximately 60 mg/kg approximately 24 hours prior to administration of the recombinant rAd-p53 virus. Appropriate control viruses and solutions were employed. The mice were injected with 1×10^10 particles of rAd-p53 per injection intratumorally in combination with intraperitoneally injected CI-1 at a concentration of 60 mg/kg for a period of 5 days, 2 days off and then for 5 more days. Tumor growth/regression was evaluated at Day 4, Day 8 and Day 11 post-treatment (FIGS. 12 A,B and C respectively). In all instances the rate of decrease in tumor growth was at least 40% reduction in fold increase in tumor volume in mice treated with calpain inhibitor 1 in addition to FTCB, in comparison with the mice treated with the FTCB vector alone.

**Q.** What does the source list for `CCCC[C@@H](C=O)NC(=O)[C@H](CC(C)C)NC(=O)[C@H](CC(C)C)NC(C)=O` [CI-1, N-acetyl-leu-leu-norleucinal] (Ac-Leu-Leu-[Nle]-aldehyde)?
**A.** Percentage of Cells Undergoing Apoptosis (HLF cells; 10 μM CI-1, 17 hours post treatment): 7%; annexin V staining (HLF cells; 10 μM CI-1 alone, 42 hours post-treatment): 3%; Percent Annexin V Positive Staining (HLF cells; CI-1 10 μM): 27%; Percent Annexin V Positive Staining (HLF cells; CI-1 20 μM): 27%; Percent Annexin V Positive Staining (HLF cells; CI-1 30 μM): 33%; Percent Annexin V Positive Staining (HLF cells; CI-1 40 μM): 20%; Percent Annexin V Positive Staining (HLF cells; CI-1 50 μM): 21%; decrease in the particles/ml of rAd-p53 needed to induce approximately 50% cell death (HLF cells; treatment with 10 μM CI-1 at 42 hours): approximately two log decrease; antitumor effects [1]: significant antitumor effects
